Test results published in US20260083865A1, “PROSTATE SPECIFIC MEMBRANE ANTIGEN (PSMA) LIGANDS AND USE THEREOF” (priority 2022, published 2026).
Where two headings read alike, the source gives them in different places. Numbered stars: 1 amine (or outer) side, 2 acyl side, 3 side chain; on linkers, the order of the positions; unused ones are H or OH. Bridge positions count the residues as written; N and C are the ends. Square brackets hold non-standard residues; d marks the D form. Side chains are listed from the residue outwards. Peptide text beside a SMILES is read from it. * marks the point of attachment. TtdsdLys(DOTA)NH2 = NC(=O)[C@@H](CCCCNC(=O)CN1CCN(CC(=O)O)CCN(CC(=O)O)CCN(CC(=O)O)CC1)NC(=O)CCC(=O)NCCCOCCOCCOCCCN*; X2 = O=C(O)CN1CCN(CC(=O)O)CCN([C@H](CCC(=O)*)C(=O)O)CCN(CC(=O)O)CC1; DOTA = O=C(O)CN1CCN(CC(=O)O)CCN(CC(=O)*)CCN(CC(=O)O)CC1; Phe(3-Cl) = N[C@@H](Cc1cccc(Cl)c1)C(=O)O; Phe(4-Cl) = N[C@@H](Cc1ccc(Cl)cc1)C(=O)O; Arg(Me) = CNC(=N)NCCC[C@H](N)C(=O)O; Ethylenediamine = C(CN[*:2])N[*:1]; NMeT = CN[C@H](C(=O)O)[C@@H](C)O; X1 = O=C(CC1CCN([*:1])CC1)[*:2]; Lys(Me) = CNCCCC[C@H](N)C(=O)O; Tle = CC(C)(C)[C@H](N)C(=O)O; Propanoyl(3-OH) = O=C(CCO)*; 4Amb = NCc1ccc(C(=O)O)cc1; AEEA = NCCOCCOCC(=O)O; Aib = CC(C)(N)C(=O)O; βAla = NCCC(=O)O

How the values were obtained:
PC3-PIP tumor model = tested on: PC3-PIP tumor model; set-up: species or system mice; conditions: mouse, in vivo
Source text: Radioactively labeled compounds can be detected by imaging methods such as SPECT and PET. Furthermore, the data acquired by such techniques can be confirmed by direct measurement of radioactivity contained in the individual organs prepared from an animal injected with a radioactively labeled compound of the disclosure. Thus, the biodistribution (the measurement of radioactivity in individual organs) of a radioactively labeled compound can be determined and analyzed. […] All animal experiments were conducted in compliance with the German animal protection laws. Male swiss or NMRI nude mice (6-8 weeks old, Janvier Labs, France) were inoculated with 5×10^6 PC3-PIP cells in the right shoulder. For selected compounds an additional model was used, here male NMRI nude mice (6-8 weeks old, Janvier Labs, France) were inoculated with 5×10^6 or/1×10^7 C4-2 cells in the right shoulder. When tumors reached an appropriate size, the mice received ˜30 MBq ^111In-labeled compounds of the disclosure (diluted to 100 μL with PBS) administered intravenously via the tail vein. Images were obtained on a NanoSPECT/computed tomography system (Mediso Medical Imaging Systems, Budapest, Hungary) using exemplarily the following acquisition and reconstruction parameters (Table 10). [table] Imaging data were saved as DICOM files and analysed using VivoQuant™ software (Invicro, Boston, USA). In brief, regions of interest (ROIs) were drawn based on computed tomography images for the relevant organs and tissue regions such as heart (estimate of blood pool, bps), kidney, and tumor. The resulting numeric data expressed as a percentage of injected dose per gram of tissue (% ID/g) are presented in FIGS. 3(a)-3(ii) for the PC3-PIP model and FIGS. 4(a)-4(r) for the C4-2 model. Bars show mean % ID/g values of two to three animals per time point. Error bars indicate the value range (minimum and maximum values).

[1] = biological target: T1, PSMA-expressing C4-2 cells (Homo sapiens, UniProt Q04609); assay: FACS binding assay (competition with 50 nM PSM-0183); conditions: read-out: pIC50 [C4-2] CAT (converted)
T1 construct: PSMA-expressing C4-2 cells (ATCC, Cat. No. CRL-3314) were cultured in RPMI-1640; host or cells: C4-2 cells
Method in brief: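 Competition format: fluorescent tracer PSM-0183 (50 nM) displaced from PSMA on C4-2 cells by a test compound titration over 1 h at 4 °C. Bound tracer was quantified as flow-cytometric AF488 median fluorescence after washing. Four-parameter logistic fits of MFI data gave IC50 and pIC50.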

[2] = biological target: T2, Fc-fusion protein of human PSMA (hPSMA-Fc) (Homo sapiens, UniProt Q04609); assay: Surface plasmon resonance assay (Biacore T200, single cycle kinetic); format: binding; conditions: read-out: pKD CAT (converted)
T2 construct: purchased Acro Biosystems PSA-H5264
Method in brief: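 KD, expressed as pKD, came from 1:1 Langmuir fits of reference- and buffer-blank-subtracted SPR data. The runs were single-cycle kinetics at 25° C in HBST/0.1% DMSO over human PSMA-Fc, captured to ~1000 RU on a peptide-coated CM5 surface and regenerated with 10 mM glycine pH 1.5.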

[3] = FACS binding, PSMA-expressing C4-2 cells, pIC50 category
[4] = PSMA SPR assay, hPSMA-Fc, 25° C., pKD category
[5] = pIC50 category of FACS binding, C4-2 cells
[6] = pKD category for PSMA SPR activity assay, hPSMA-Fc, 25° C.
[7] = FACS binding, C4-2 cells, competition with 50 nM PSM-0183, category
[8] = SPR, hPSMA-Fc, single cycle kinetic, 25° C., category

T1 sequence (Q04609 whole entry): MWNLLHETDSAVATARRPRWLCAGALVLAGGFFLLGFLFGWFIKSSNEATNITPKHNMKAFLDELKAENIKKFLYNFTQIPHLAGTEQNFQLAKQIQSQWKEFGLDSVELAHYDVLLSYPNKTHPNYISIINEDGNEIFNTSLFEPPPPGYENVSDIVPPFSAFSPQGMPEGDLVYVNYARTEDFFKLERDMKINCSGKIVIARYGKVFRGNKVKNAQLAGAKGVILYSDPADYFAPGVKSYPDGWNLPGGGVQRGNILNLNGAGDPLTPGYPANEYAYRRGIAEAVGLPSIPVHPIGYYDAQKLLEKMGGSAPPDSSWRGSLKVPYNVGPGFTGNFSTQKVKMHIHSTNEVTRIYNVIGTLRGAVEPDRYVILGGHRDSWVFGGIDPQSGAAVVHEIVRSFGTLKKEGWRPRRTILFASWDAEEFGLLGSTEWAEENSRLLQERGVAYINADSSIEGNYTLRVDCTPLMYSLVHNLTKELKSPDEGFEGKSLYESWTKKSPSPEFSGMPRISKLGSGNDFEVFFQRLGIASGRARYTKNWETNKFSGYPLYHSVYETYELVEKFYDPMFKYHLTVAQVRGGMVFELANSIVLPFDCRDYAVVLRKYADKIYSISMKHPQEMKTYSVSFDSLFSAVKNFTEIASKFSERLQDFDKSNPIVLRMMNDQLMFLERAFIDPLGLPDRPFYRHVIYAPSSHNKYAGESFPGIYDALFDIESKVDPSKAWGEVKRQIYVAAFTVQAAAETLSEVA
T2 sequence (Q04609 44-750 limits assumed): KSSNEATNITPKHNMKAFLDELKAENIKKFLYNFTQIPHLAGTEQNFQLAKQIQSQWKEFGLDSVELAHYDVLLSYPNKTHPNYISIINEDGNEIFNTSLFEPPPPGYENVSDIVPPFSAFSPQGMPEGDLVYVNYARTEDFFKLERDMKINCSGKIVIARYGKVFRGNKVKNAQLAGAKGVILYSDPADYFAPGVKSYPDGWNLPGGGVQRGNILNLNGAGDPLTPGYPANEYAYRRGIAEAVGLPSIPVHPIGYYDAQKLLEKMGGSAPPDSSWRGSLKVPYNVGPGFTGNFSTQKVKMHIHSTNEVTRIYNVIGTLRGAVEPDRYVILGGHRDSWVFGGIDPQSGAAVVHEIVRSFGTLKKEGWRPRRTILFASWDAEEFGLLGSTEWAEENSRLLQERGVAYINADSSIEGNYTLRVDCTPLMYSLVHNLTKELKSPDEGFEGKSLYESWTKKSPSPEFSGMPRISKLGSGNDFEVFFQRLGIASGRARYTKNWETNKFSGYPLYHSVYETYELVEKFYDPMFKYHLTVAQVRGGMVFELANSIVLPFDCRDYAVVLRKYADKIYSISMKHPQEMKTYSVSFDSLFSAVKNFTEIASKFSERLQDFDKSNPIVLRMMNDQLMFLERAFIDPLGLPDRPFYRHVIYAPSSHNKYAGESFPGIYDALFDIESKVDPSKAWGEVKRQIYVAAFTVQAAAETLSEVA

| SMILES | AUC ratio [T/K] (PC3-PIP tumor model) | Tumor AUC (PC3-PIP tumor model) | IC50 [1, 3] | Kd [2, 4] | IC50 ([1]; FACS binding, C4-2 cells, category) | Kd ([2]; PSMA SPR assay, category) | IC50 [1, 5] | Kd [2, 6] | IC50 [1, 7] | Kd [2, 8] |
| --- | --- | --- | --- | --- | --- | --- | --- | --- | --- | --- |
| CC(=O)N[C@H](C(=O)NC(C)(C)C(=O)N[C@@H](Cc1ccccc1)C(=O)N[C@H]1CSSC[C@@H](C(=O)N[C@H](C(=O)N[C@H](C(=O)NCCCOCCOCCOCCCNC(=O)CCC(=O)N[C@H](CCCCNC(=O)CN2CCN(CC(=O)O)CCN(CC(=O)O)CCN(CC(=O)O)CC2)C(N)=O)[C@@H](C)O)C(C)(C)C)NC(=O)[C@H](CC(N)=O)NC(=O)C(C)(C)NC(=O)[C@H](CCCNC(=N)N)NC(=O)[C@H](CCCCN)NC1=O)[C@@H](C)O [PSM-0285, Ac-Thr-Aib-Phe-[Cys-Lys-Arg-Aib-Asn-Cys]-Tle-Thr-Ttds-lys(DOTA)-NH2] (Ac-T[Aib]FCKR[Aib]NC[Tle]T-{TtdsdLys(DOTA)NH2}; disulfide 4-9) | 0.91 | 210 % ID/g*h | < 200 nM | < 12.6 nM | – | – | – | – | – | – |
| CC(=O)N[C@H](C(=O)NC(C)(C)C(=O)N[C@@H](Cc1cccc(Cl)c1)C(=O)N[C@H]1CSSC[C@@H](C(=O)N[C@H](C(=O)N[C@H](C(N)=O)[C@@H](C)O)C(C)(C)C)NC(=O)[C@H](CC(N)=O)NC(=O)[C@H](CCCCNC(=O)COCCOCCNC(=O)CC[C@H](C(=O)O)N2CCN(CC(=O)O)CCN(CC(=O)O)CCN(CC(=O)O)CC2)NC(=O)[C@H](CCCNC(=N)N)NC(=O)[C@H](CCCCN)NC1=O)[C@@H](C)O [PSM-0301, Ac-Thr-Aib-Mcf-[Cys-Lys-Arg-Lys (DOTAGA-020c)-Asn-Cys]-Tle-Thr-NH2] (Ac-T[Aib][Phe(3-Cl)]CKRK([AEEA-X2])NC[Tle]T-NH2; disulfide 4-9) | 0.45 | 83 % ID/g*h | < 200 nM | < 12.6 nM | – | – | – | – | – | – |
| C[C@@H](O)[C@H](NC(=O)[C@@H](NC(=O)[C@@H]1CSSC[C@H](NC(=O)[C@H](Cc2ccccc2)NC(=O)C(C)(C)NC(=O)[C@@H](NC(=O)CN2CCN(CC(=O)O)CCN(CC(=O)O)CCN(CC(=O)O)CC2)[C@@H](C)O)C(=O)N[C@@H](CCCCN)C(=O)N[C@@H](CCCNC(=N)N)C(=O)NC(C)(C)C(=O)N[C@@H](CC(N)=O)C(=O)N1)C(C)(C)C)C(N)=O [PSM-0580, DOTA-Thr-Aib-Phe-[Cys-Lys-Arg-Aib-Asn-Cys]-Tle-Thr-NH2] ({DOTA}-T[Aib]FCKR[Aib]NC[Tle]T-NH2; disulfide 4-9) | 1.6 | 110 % ID/g*h | – | – | < 200 nM | < 12.6 nM | – | – | – | – |
| CNCCCC[C@@H]1NC(=O)[C@@H](NC(=O)[C@H](Cc2ccc(Cl)cc2)NC(=O)C(C)(C)NC(C)=O)CSSC[C@@H](C(=O)N[C@H](C(=O)NCCNC(=O)CN2CCN(CC(=O)O)CCN(CC(=O)O)CCN(CC(=O)O)CC2)C(C)(C)C)NC(=O)[C@H](CC(N)=O)NC(=O)C(C)(C)NC(=O)[C@H](CCCNC(=N)NC)NC1=O [PSM-0481, Ac-Aib-Pcf-[Cys-Lys(Me)-Arg(Me)-Aib-Asn-Cys]-Tle-en-DOTA] (Ac-[Aib][Phe(4-Cl)]C[Lys(Me)][Arg(Me)][Aib]NC[Tle]-{Ethylenediamine-DOTA}; disulfide 3-8) | 2.6 | 130 % ID/g*h | – | – | – | – | < 200 nM | < 12.6 nM | – | – |
| CC(C)[C@H](NC(=O)[C@@H]1CSSC[C@H](NC(=O)[C@H](Cc2ccc(Cl)cc2)NC(=O)C(C)(C)NC(=O)[C@@H](NC(=O)CC2CCN(C(=O)CN3CCN(CC(=O)O)CCN(CC(=O)O)CCN(CC(=O)O)CC3)CC2)[C@@H](C)O)C(=O)N[C@@H](CCCCN)C(=O)N[C@@H](CCCNC(=N)N)C(=O)NC(C)(C)C(=O)N[C@@H](CC(N)=O)C(=O)N1)C(=O)N(C)[C@H](C(N)=O)[C@@H](C)O [PSM-0377, DOTA-Cmp-Thr-Aib-Pcf-[Cys-Lys-Arg-Aib-Asn-Cys]-Val-Nmt-NH2] ({DOTA}-[X1]T[Aib][Phe(4-Cl)]CKR[Aib]NCV[NMeT]-NH2; disulfide 5-10) | 1.1 | 160 % ID/g*h | – | – | – | – | < 200 nM | < 12.6 nM | – | – |
| CC(C)(NC(=O)c1ccc(CNC(=O)CN2CCN(CC(=O)O)CCN(CC(=O)O)CCN(CC(=O)O)CC2)cc1)C(=O)N[C@@H](Cc1ccc(Cl)cc1)C(=O)N[C@H]1CSSC[C@@H](C(=O)N[C@H](C(=O)NCCN)C(C)(C)C)NC(=O)[C@H](CC(N)=O)NC(=O)C(C)(C)NC(=O)[C@H](CCCNC(=N)N)NC(=O)[C@H](CCCCN)NC1=O [PSM-0273, DOTA-Pamb-Aib-Pcf-[Cys-Lys-Arg-Aib-Asn-Cys]-Tle-en] ({DOTA-4Amb}-[Aib][Phe(4-Cl)]CKR[Aib]NC[Tle]-Ethylenediamine; disulfide 3-8) | 0.21 | 110 % ID/g*h | < 200 nM | < 12.6 nM | – | – | – | – | – | – |
| C[C@@H](O)[C@H](NC(=O)CC1CCN(C(=O)CN2CCN(CC(=O)O)CCN(CC(=O)O)CCN(CC(=O)O)CC2)CC1)C(=O)NC(C)(C)C(=O)N[C@@H](Cc1ccccc1)C(=O)N[C@H]1CSSC[C@@H](C(=O)N[C@H](C(=O)NCCC(N)=O)C(C)(C)C)NC(=O)[C@H](CC(N)=O)NC(=O)C(C)(C)NC(=O)[C@H](CCCNC(=N)N)NC(=O)[C@H](CCCCN)NC1=O [PSM-0449, DOTA-Cmp-Thr-Aib-Pho-[Cys-Lys-Arg-Aib-Asn-Cys]-Tle-Bal-NH2] ({DOTA}-[X1]T[Aib]FCKR[Aib]NC[Tle][βAla]-NH2; disulfide 5-10) | 1.4 | 220 % ID/g*h | – | – | – | – | < 200 nM | < 12.6 nM | – | – |
| C[C@@H](O)[C@H](NC(=O)[C@@H](NC(=O)[C@@H]1CSSC[C@H](NC(=O)[C@H](Cc2ccccc2)NC(=O)C(C)(C)NC(=O)[C@@H](NC(=O)CC2CCN(C(=O)CN3CCN(CC(=O)O)CCN(CC(=O)O)CCN(CC(=O)O)CC3)CC2)[C@@H](C)O)C(=O)N[C@@H](CCCCN)C(=O)N[C@@H](CCCNC(=N)N)C(=O)NC(C)(C)C(=O)N[C@@H](CC(N)=O)C(=O)N1)C(C)(C)C)C(N)=O [PSM-0492, DOTA-Cmp-Thr-Aib-Phe-[Cys-Lys-Arg-Aib-Asn-Cys]-Tle-Thr-NH2] ({DOTA}-[X1]T[Aib]FCKR[Aib]NC[Tle]T-NH2; disulfide 5-10) | 2.1 | 180 % ID/g*h | – | – | – | – | < 200 nM | < 12.6 nM | – | – |
| CC(=O)N[C@H](C(=O)NC(C)(C)C(=O)N[C@@H](Cc1cccc(Cl)c1)C(=O)N[C@H]1CSSC[C@@H](C(=O)N[C@H](C(=O)N[C@H](C(N)=O)[C@@H](C)O)C(C)(C)C)NC(=O)[C@H](CC(N)=O)NC(=O)[C@H](CCCCNC(=O)COCCOCCNC(=O)CN2CCN(CC(=O)O)CCN(CC(=O)O)CCN(CC(=O)O)CC2)NC(=O)[C@H](CCCNC(=N)N)NC(=O)[C@H](CCCCN)NC1=O)[C@@H](C)O [PSM-0243, Ac-Thr-Aib-Mcf-[Cys-Lys-Arg-Lys(DOTA-O2Oc)-Asn-Cys]-Tle-Thr-NH2] (Ac-T[Aib][Phe(3-Cl)]CKRK([AEEA-DOTA])NC[Tle]T-NH2; disulfide 4-9) | 0.53 | 130 % ID/g*h | – | – | – | – | – | – | < 200 nM | < 12.6 nM |
| C[C@@H](O)[C@H](NC(=O)[C@@H](NC(=O)[C@@H]1CSSC[C@H](NC(=O)[C@H](Cc2ccc(Cl)cc2)NC(=O)C(C)(C)NC(=O)CCO)C(=O)N[C@@H](CCCCN)C(=O)N[C@@H](CCCNC(=N)N)C(=O)NC(C)(C)C(=O)N[C@@H](CC(N)=O)C(=O)N1)C(C)(C)C)C(=O)N[C@H](CCCCNC(=O)CN1CCN(CC(=O)O)CCN(CC(=O)O)CCN(CC(=O)O)CC1)C(N)=O [PSM-0267, HPA-Aib-Pcf-[Cys-Lys-Arg-Aib-Asn-Cys]-Tle-Thr-lys(DOTA)-NH2] ({Propanoyl(3-OH)}-[Aib][Phe(4-Cl)]CKR[Aib]NC[Tle]T[dK](DOTA)-NH2; disulfide 3-8) | 1.2 | 170 % ID/g*h | – | – | – | – | – | – | < 200 nM | < 12.6 nM |
